Reference: publication PMC2666621 (Current drug metabolism, 2009)

Assays:
[1] = biological target: T1, CHLαGcT (cholesterol α-glucosyltransferase; HP0421) (Helicobacter pylori, UniProt O25175); experiment: product inhibition, Lineweaver-Burk; type: biochemical; details: varied UDP-Glc; competitive with UDP-Glc
[2] = biological target: T1, CHLαGcT (cholesterol α-glucosyltransferase; HP0421); experiment: glucosyltransferase inhibition assay; type: biochemical; details: UDP-Glc 3.6 μM, cholesterol 400 μM (so in the source); cited from earlier work

O=c1ccn([C@@H]2O[C@H](COP(=O)(O)OP(=O)(O)O)[C@@H](O)[C@H]2O)c(=O)[nH]1 [UDP]
product inhibition, Lineweaver-Burk [1]: inhibition profile of UDP in the presence of UDP-Glc intersected at the Y-axis, indicating competitive inhibition

CC(=O)N[C@H]1[C@@H](Oc2ccc([N+](=O)[O-])cc2)O[C@H](CO)[C@H](O)[C@@H]1O[C@@H]1O[C@H](CO)[C@H](O)[C@H](O)[C@H]1O [Galβ1→3GalNAcα1→p-nitrophenol]
IC50 [2]: 7.49 mM

CC(=O)N[C@H]1[C@H](OC[C@H]2O[C@H](Oc3ccc([N+](=O)[O-])cc3)[C@H](NC(C)=O)[C@@H](O[C@@H]3O[C@H](CO)[C@H](O)[C@H](O)[C@H]3O)[C@H]2O)O[C@H](CO)[C@@H](O)[C@@H]1O [GlcNAcβ1→6(Galβ1→3)GalNAcα1→p-nitrophenol]
IC50 [2]: 2.21 mM

CCCCCCCCO[C@H]1O[C@H](CO)[C@H](O)[C@H](O[C@@H]2O[C@H](CO)[C@H](O)[C@H](O[C@]3(C(=O)O)C[C@H](O)[C@@H](NC(C)=O)[C@H]([C@H](O)[C@H](O)CO)O3)[C@H]2O)[C@H]1NC(C)=O [NeuAcα2→3Galβ1→3GalNAcα1→octyl]
IC50 [2]: 1.09 mM

CCCCCCCCO[C@H]1O[C@H](CO[C@@H]2O[C@H](CO)[C@@H](O[C@@H]3O[C@H](CO)[C@H](O[C@H]4O[C@H](CO)[C@@H](O)[C@H](O)[C@H]4NC(C)=O)[C@H](O)[C@H]3O)[C@H](O)[C@H]2NC(C)=O)[C@H](O)[C@H](O[C@@H]2O[C@H](CO)[C@H](O)[C@H](O)[C@H]2O)[C@H]1NC(C)=O [GlcNAcα1→4Galβ1→4GlcNAcβ1→6(Galβ1→3)GalNAcα1→octyl]
IC50 [2]: 0.47 mM
